Consider 3 molecules from patent US6391301B1, “Agent for identifying and treating metastasizing tumors” (Forschungszentrum Karlsruhe GmbH, priority 1998, dated 2002).

This experiment concerns M-N#1 antibody binding to proteins in lysates from MT-450 cells. As to the kind of experiment: Competition of M-N#1 binding with fucose and galactose (immunoprecipitation). Also on record: species or system rat. The settings on record: increasing amounts of sugar, lysates from radiolabelled MT-450 cells. How it is done: Immunoprecipitation: cells were labeled by incubation with (^35S)L-methionine ([…]) in methionine-free RPMI medium supplemented with dialyzed FCS for 4 h. For a pulse-chase analysis, cells were incubated with (^35S)L-methionine ([…]) in methionine-free RPMI medium supplemented with dialyzed FCS for 15 minutes, then washed and incubated further with methionine-containing medium. For immunoprecipitations, cells were lyzed in RIPA (radioimmunoprecipitation) buffer, and aliquots were immunoprecipitated with 5 μg of antibodies. To purify proteins which bind to Ulex europaeus lectin, the cells were lyzed with PBS/1% NP40/1 mM PMSF and centrifuged, and the lysates were incubated with Ulex europaeus lectin beads at 4° C. for one hour. The beads were then washed three times with PBS, and the excess buffer was removed. The beads were boiled in 1% SDS/20 mM phosphate at pH 7.0. A 20-fold excess of RIPA buffer was then added, and the supernatant was used for the immunoprecipitation after removal of the Ulex europaeus lectin beads. In experiments in which immunoprecipitated proteins were treated with 0.5 U of N-glycosidase F, 2.5 mU of O-glycosidase or 5 mU of neuraminidase, the antigen-antibody matrix bead complex was initially washed in 100 mM phosphate buffer, pH 7.0. Buffer was removed and then the matrix beads were boiled in 5 μl of 1% SDS/20 mM phosphate, pH 7.0, for 5 minutes. The enzymes were then added in 45 μl of 20 mM phosphate buffer (pH 7.0)/1 mM CaSO4. The efficiency of the enzyme reaction was confirmed by comparison with similar digestive processes on immunoprecipitated CD44v4-v7 protein, which is digested by each of said enzymes. Immunoprecipitated proteins were removed by SDS (sodium dodecyl sulfate) PAGE (polyacrylamide gel electrophoresis). Gels were treated with PPO (2,5-diphenyloxazole) and exposed to X-ray sensitive film material.
Competition of M-N#1 binding with fucose and galactose. […]
As to `C[C@@H](O)[C@H](O)[C@H](O)[C@@H](O)C=O` [D-fucose], the “Effect on protein binding to M-N#1 antibody” value (from here on “Effect on protein binding”) is listed as “inhibited”.

Regarding `O=C[C@H](O)[C@@H](O)[C@@H](O)[C@H](O)CO` [D-galactose], the “Effect on protein binding” value is on record as “inhibited”.

With `C[C@H](O)[C@@H](O)[C@@H](O)[C@H](O)C=O` [L-Fucose], the “Effect on protein binding” value was “no effect”.
